Reference: paper PMC5919452 (Japanese Journal of Cancer Research : Gann, 1994)

Experiments:
[1] = target: T1, EGF receptor (Homo sapiens, UniProt P00533); test: autophosphorylation of EGF receptor in A431 cells; format: cell-based
[2] = target: erbB‐2 (Homo sapiens, UniProt P04626); test: erbB-2 tyrosine kinase inhibition; format: biochemical; conditions: read-out: IC50 for erbB‐2
[3] = target: p43^v‐abl; test: p43v-abl tyrosine kinase inhibition; format: biochemical; conditions: read-out: IC50 for p43^v‐abl
[4] = system: cAMP‐dependent protein kinase; test: cAMP-dependent protein kinase inhibition; format: biochemical; conditions: 20 μM
[5] = system: casein kinase I; test: casein kinase I inhibition; format: biochemical; conditions: 20 μM
[6] = target: insulin receptor kinase (Homo sapiens, UniProt P06213); test: insulin receptor kinase inhibition; format: biochemical; conditions: read-out: IC50 for insulin receptor kinase
Chain of insulin receptor kinase (P06213 28-1382): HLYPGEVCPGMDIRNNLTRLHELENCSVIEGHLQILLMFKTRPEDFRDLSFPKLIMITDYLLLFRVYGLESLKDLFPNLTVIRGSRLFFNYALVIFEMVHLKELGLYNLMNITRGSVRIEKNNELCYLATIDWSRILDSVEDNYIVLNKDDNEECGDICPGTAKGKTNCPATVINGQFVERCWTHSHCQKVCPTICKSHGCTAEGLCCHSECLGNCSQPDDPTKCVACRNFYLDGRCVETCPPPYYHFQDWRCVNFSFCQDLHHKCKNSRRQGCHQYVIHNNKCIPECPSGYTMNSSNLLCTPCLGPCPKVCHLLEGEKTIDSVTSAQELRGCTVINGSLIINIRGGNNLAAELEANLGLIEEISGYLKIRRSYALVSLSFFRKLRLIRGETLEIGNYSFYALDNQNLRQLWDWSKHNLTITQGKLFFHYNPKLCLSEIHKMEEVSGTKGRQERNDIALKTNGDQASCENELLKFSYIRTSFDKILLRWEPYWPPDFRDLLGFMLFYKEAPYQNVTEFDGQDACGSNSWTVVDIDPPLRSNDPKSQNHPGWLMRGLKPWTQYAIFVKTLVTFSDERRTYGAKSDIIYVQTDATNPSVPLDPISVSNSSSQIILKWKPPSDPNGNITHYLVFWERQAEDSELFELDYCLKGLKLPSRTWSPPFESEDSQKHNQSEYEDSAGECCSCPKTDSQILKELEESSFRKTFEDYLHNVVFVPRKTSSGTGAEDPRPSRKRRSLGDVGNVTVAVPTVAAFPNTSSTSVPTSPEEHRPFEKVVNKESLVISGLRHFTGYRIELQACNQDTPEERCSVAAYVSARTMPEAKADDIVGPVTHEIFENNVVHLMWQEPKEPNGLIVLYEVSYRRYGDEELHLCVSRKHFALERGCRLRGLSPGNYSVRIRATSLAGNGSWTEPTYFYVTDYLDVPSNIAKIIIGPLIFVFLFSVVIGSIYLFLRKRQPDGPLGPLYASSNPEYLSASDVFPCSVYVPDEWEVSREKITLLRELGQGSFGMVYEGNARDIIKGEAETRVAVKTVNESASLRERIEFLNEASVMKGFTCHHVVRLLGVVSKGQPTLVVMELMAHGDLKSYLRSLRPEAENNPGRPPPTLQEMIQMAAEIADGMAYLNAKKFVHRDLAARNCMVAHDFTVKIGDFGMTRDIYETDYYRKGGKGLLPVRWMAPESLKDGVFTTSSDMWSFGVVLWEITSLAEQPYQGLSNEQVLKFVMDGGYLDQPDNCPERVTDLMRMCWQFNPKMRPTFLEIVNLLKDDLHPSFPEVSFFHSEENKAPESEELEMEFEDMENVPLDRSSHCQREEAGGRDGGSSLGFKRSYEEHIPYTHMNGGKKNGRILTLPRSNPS

[7] = target: T1, EGF receptor; test: kinetic study of kinase inhibition; format: biochemical
[8] = target: protein kinase C; test: protein kinase C inhibition; format: biochemical; conditions: read-out: IC50 for protein kinase C; serine/threonine kinase
[9] = target: p60^c‐src (Homo sapiens, UniProt P12931); test: p60c-src tyrosine kinase inhibition; format: biochemical; conditions: read-out: IC50 for p60^c‐src
[10] = system: casein kinase II; test: casein kinase II inhibition; format: biochemical; conditions: 20 μM
[11] = target: Cdc2 kinase (Homo sapiens, UniProt P06493); test: Cdc2 kinase inhibition; format: biochemical; conditions: 20 μM
[12] = target: epidermal growth factor (EGF) receptor kinase (Homo sapiens, UniProt P00533); test: EGF receptor kinase inhibition; format: biochemical; conditions: read-out: IC50 for epidermal growth factor (EGF) receptor kinase
Chain of epidermal growth factor (EGF) receptor kinase (P00533 25-1210): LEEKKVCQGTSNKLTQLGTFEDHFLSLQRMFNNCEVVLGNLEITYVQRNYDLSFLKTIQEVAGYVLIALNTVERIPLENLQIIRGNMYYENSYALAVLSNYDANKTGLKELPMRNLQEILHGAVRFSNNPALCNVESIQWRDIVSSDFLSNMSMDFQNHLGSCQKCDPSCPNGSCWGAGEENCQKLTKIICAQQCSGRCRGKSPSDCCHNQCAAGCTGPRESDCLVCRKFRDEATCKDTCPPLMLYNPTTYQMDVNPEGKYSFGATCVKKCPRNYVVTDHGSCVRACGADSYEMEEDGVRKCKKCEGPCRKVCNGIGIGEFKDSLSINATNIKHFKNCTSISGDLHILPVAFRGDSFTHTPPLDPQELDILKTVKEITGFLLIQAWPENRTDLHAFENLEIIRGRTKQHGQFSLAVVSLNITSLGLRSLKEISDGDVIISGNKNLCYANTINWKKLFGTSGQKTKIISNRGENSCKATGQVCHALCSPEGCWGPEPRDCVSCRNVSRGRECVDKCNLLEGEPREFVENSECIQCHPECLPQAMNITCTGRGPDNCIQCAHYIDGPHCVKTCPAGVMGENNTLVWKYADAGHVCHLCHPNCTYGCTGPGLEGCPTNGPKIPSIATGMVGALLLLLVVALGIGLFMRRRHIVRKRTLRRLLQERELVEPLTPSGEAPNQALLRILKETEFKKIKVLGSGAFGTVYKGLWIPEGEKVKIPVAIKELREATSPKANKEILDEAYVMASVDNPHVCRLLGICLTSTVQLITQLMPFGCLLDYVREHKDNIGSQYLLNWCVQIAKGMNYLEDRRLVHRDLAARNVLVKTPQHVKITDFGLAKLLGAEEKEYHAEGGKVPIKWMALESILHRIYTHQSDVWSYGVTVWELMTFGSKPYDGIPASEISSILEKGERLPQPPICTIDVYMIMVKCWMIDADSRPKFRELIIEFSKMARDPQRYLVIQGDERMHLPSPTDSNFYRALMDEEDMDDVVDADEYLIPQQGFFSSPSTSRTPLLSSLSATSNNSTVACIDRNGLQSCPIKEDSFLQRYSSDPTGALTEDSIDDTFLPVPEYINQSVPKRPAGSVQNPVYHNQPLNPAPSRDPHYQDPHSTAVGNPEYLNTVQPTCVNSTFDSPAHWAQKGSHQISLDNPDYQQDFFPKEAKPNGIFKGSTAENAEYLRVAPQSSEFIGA

T1 sequence (P00533 25-1210): as above
Chain of erbB‐2 (P04626 23-1255, species assumed): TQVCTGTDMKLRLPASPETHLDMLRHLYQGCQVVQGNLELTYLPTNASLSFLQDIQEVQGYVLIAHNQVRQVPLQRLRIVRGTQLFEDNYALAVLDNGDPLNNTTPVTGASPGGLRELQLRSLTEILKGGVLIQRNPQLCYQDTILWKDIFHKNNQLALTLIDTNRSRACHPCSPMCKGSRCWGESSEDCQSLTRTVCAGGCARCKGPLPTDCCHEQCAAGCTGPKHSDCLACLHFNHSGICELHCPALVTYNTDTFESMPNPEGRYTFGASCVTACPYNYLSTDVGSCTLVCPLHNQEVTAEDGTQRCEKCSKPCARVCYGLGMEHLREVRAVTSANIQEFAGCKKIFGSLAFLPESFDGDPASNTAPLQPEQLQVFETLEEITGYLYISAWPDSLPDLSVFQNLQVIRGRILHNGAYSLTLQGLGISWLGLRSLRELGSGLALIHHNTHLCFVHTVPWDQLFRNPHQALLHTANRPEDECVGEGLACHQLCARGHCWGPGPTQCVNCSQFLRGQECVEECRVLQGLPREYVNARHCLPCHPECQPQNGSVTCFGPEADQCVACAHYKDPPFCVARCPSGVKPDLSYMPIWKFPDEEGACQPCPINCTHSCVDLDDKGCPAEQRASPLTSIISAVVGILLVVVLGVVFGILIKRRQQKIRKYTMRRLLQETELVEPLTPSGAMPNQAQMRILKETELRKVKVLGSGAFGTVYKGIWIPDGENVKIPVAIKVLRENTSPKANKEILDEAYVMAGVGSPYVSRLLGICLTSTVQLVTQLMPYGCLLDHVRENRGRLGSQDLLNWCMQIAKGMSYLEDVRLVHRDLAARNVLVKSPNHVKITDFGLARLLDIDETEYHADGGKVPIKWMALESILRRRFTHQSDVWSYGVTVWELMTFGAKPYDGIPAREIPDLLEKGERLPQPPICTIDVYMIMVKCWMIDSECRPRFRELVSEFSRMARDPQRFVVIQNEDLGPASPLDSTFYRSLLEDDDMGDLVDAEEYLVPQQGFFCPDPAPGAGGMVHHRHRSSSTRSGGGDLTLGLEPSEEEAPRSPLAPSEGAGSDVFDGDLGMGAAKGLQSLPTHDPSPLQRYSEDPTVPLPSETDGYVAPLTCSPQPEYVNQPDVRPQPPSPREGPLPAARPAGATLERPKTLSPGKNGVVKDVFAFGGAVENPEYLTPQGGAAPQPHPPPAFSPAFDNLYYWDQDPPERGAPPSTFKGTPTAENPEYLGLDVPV

SMILES: O=C1OC(c2ccc(O)c(O)c2)=C/C1=C\c1ccc(O)c(O)c1 [BE‐23372M]
- Autophosphorylation of EGP receptor in A431 cells [1]: inhibited
- IC50 [2]: 420 nM
- IC50 [3]: 1000 nM
- inhibition of cAMP‐dependent protein kinase [4]: not inhibited
- inhibition of casein kinase I [5]: not inhibited
- IC50 [6]: 3300 nM
- mode of inhibition with respect to ATP ([7]; ATP): competitive
- mode of inhibition with respect to the substrate peptide ([7]; substrate peptide): competitive
- IC50 [8]: 4100 nM
- IC50 [9]: 4500 nM
- inhibition of casein kinase II [10]: not inhibited
- inhibition of Cdc2 kinase [11]: not inhibited
- IC50 [12]: 30 nM
